This is an account of results in ChEMBL document CHEMBL1201862, “PubChem BioAssay data set” (2004).

Some test systems named below: OVCAR-8; SW-620; M14; MOLT-4; HOP-62; OVCAR-4; NCI-H460; SR; COLO 205; T47D; HCC 2998; EKVX; RPMI-8226; SK-MEL-2; UO-31; Malme-3M; HT-29; U-251; OVCAR-5; CCRF-CEM.
What all share (experiment): NCI-60 cell line screen, 48 h

The structures appear in SMILES notation.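 96-well plates; 48 h exposure; 5 concentrations. Endpoints by linear interpolation between flanking doses. Not reached: highest tested concentration assigned. GI50 is the concentration that inhibits growth by half.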 Active and inactive are the calls of the source. Rule as the data show it: active = GI50 up to about 1.1 µM and inactive = higher. A value given as a limit tells only on which side of the number the result lay.

For `Cc1cc(C23OC4COC(C)(C)OC4C2OC(C)(C)O3)nc2ccccc12` (stereo not given), the GI50 in the assay with OVCAR-8 is > 100 µM (inactive); with SW-620, > 100 µM (inactive); in the assay with M14, > 100 µM (inactive); in the assay on MOLT-4, 25.5 µM (inactive); with HOP-62, > 100 µM (inactive); in the assay with OVCAR-4 it was > 100 µM (inactive). For the same molecule, the GI50 with NCI-H460 is > 100 µM (inactive); with SR it was 72.8 µM (inactive); in the assay with COLO 205 it was > 100 µM (inactive); in the assay with T47D it was > 100 µM (inactive); in the assay with HCC 2998 it was > 100 µM (inactive); in the assay on EKVX it was > 100 µM (inactive). The GI50 in the assay on RPMI-8226 was > 100 µM (inactive); in the assay with SK-MEL-2 it was > 100 µM (inactive); in the assay with UO-31 it was > 100 µM (inactive); in the assay on Malme-3M, > 100 µM (inactive); with HT-29, 76.6 µM (inactive); with U-251, > 100 µM (inactive). In addition, the GI50 in the assay with OVCAR-5 is > 100 µM (inactive); in the assay on CCRF-CEM it was 32.1 µM (inactive).
`Nc1ccc(Oc2ccc(C34CC5CC6C3CC3CC4C(C5)C6(c4ccc(Oc5ccc(N)cc5)cc4)C3)cc2)cc1`: the GI50 was 31.9 µM (inactive) with OVCAR-8; 19.7 µM (inactive) in the assay with SW-620; 0.583 µM (active) in the assay with M14; 7.98 µM (inactive) with MOLT-4; 18.3 µM (inactive) in the assay on HOP-62; 11.1 µM (inactive) in the assay with OVCAR-4. For the same molecule, the GI50 with NCI-H460 was 21.4 µM (inactive); in the assay on SR, 21.9 µM (inactive); in the assay with COLO 205, < 0.01 µM (active); in the assay on T47D it was 9.14 µM (inactive); in the assay with HCC 2998 it was 18 µM (inactive); with EKVX it was 11.5 µM (inactive). Further, the GI50 in the assay on RPMI-8226 was 13 µM (inactive); in the assay with SK-MEL-2, 4.37 µM (inactive); in the assay on UO-31 it was 8.36 µM (inactive); in the assay on Malme-3M, 0.216 µM (active); in the assay with HT-29, 10.2 µM (inactive); with U-251 it was 2.9 µM (inactive). The GI50 in the assay on OVCAR-5 is > 100 µM (inactive); with CCRF-CEM it was 15.4 µM (inactive).
`CCCS(=O)OC1C(C2COC(C)(C)O2)OC2OC(C)(C)OC21` (stereo not given): the GI50 in the assay with OVCAR-8 was 10.5 µM (inactive); in the assay with SW-620 it was 8.49 µM (inactive); with M14 it was 8.61 µM (inactive); with MOLT-4, 1.63 µM (inactive); in the assay on HOP-62, 13.6 µM (inactive); in the assay on OVCAR-4, 15.2 µM (inactive). Further, the GI50 was 22.8 µM (inactive) in the assay on NCI-H460; 0.497 µM (active) in the assay with SR; 11.7 µM (inactive) in the assay on COLO 205; 20.9 µM (inactive) in the assay with T47D; 16.5 µM (inactive) with HCC 2998; 16.4 µM (inactive) in the assay with EKVX. Moreover, the GI50 with RPMI-8226 is 2.88 µM (inactive); in the assay on SK-MEL-2 it was 16.1 µM (inactive); in the assay with UO-31 it was 15 µM (inactive); in the assay on Malme-3M, 9.59 µM (inactive); in the assay with HT-29, 3.89 µM (inactive); with U-251, 8.26 µM (inactive). Further, the GI50 is 12.2 µM (inactive) with OVCAR-5 and 3.15 µM (inactive) in the assay on CCRF-CEM.
Take `CN(C)c1nc(N(C)C)nc(N(C)C)n1` [ALTRETAMINE]: the GI50 in the assay on OVCAR-8 was > 150 µM (inactive); in the assay with SW-620, > 150 µM (inactive); with M14, > 150 µM (inactive); in the assay on MOLT-4, 133 µM (inactive); in the assay on HOP-62, 139 µM (inactive); with OVCAR-4 it was > 143 µM (inactive). For the same molecule, the GI50 in the assay on NCI-H460 is > 124 µM (inactive); in the assay on SR it was > 150 µM (inactive); in the assay on COLO 205, > 148 µM (inactive); in the assay with T47D, > 150 µM (inactive); in the assay on HCC 2998, > 123 µM (inactive); with EKVX, > 150 µM (inactive). In addition, the GI50 in the assay with RPMI-8226 is > 143 µM (inactive); in the assay on SK-MEL-2 it was > 150 µM (inactive); with UO-31, > 147 µM (inactive); in the assay with Malme-3M it was > 147 µM (inactive); in the assay on HT-29 it was > 150 µM (inactive); in the assay with U-251, > 150 µM (inactive). For the same molecule, the GI50 with OVCAR-5 and in the assay on CCRF-CEM was > 147 µM (inactive) throughout.
